Experimental data from the supplement of paper PMC10307832.

Tests used:
Assay in all cases: relative viability (nuclei count vs DMSO), 5 days (fraction); higher = more cells survive
[1] = compound: Cc1cnc(CNC(=O)c2c(=O)c3ccc(N4CCCN(C)CC4)nc3n3c2sc2ccccc23)cn1 [CX-5461] + CC(=O)c1c(C)c2cnc(Nc3ccc(N4CCNCC4)cn3)nc2n(C2CCCC2)c1=O [Palbociclib] (partner 0.5 µM)
Summary of the method: (§1)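 For relative viability, nuclei counts in treated wells were divided by those in vehicle wells. Lung cancer cell lines had been pin-tool dosed in 1536-well plates the day after seeding and cultured for 5 days, then fixed and stained in one step (final 0.05% Triton X-100, 1% formaldehyde, 1 ug/ml Hoechst) and imaged at 4×. Doses were one drug alone or a fixed anchor-drug dose plus five library-drug doses (not always all listed) in √10 steps, and values are duplicate-plate medians.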

[2] = compound: Cc1cnc(CNC(=O)c2c(=O)c3ccc(N4CCCN(C)CC4)nc3n3c2sc2ccccc23)cn1 [CX-5461] + CCNC(=O)c1noc(-c2cc(C(C)C)c(O)cc2O)c1-c1ccc(CN2CCOCC2)cc1 [Luminespib] (partner 0.01 µM)
Summary of the method: as §1

[3] = compound: Cc1cnc(CNC(=O)c2c(=O)c3ccc(N4CCCN(C)CC4)nc3n3c2sc2ccccc23)cn1 [CX-5461] + NC(=O)Nc1cc(-c2cccc(F)c2)sc1C(=O)N[C@H]1CCCNC1 [AZD7762] (partner 0.2 µM)
Summary of the method: as §1

[4] = compound: O=C(Nc1cc(C(F)(F)F)cc(C(F)(F)F)c1)c1cc(Cl)ccc1O [IMD-0354] + CC(=O)c1c(C)c2cnc(Nc3ccc(N4CCNCC4)cn3)nc2n(C2CCCC2)c1=O [Palbociclib] (partner 0.5 µM)
Summary of the method: as §1

Row | Cell Line | relative viability ([1]; first compound 0.01 µM) | relative viability ([1]; first compound 0.1 µM) | relative viability ([1]; first compound 0.3162 µM) | relative viability ([1]; first compound 1 µM) | relative viability ([2]; first compound 0.01 µM) | relative viability ([2]; first compound 0.03162 µM) | relative viability ([2]; first compound 0.1 µM) | relative viability ([2]; first compound 0.3162 µM) | relative viability ([2]; first compound 1 µM) | relative viability ([3]; first compound 0.01 µM) | relative viability ([3]; first compound 0.1 µM) | relative viability ([3]; first compound 0.3162 µM) | relative viability ([3]; first compound 1 µM) | relative viability ([4]; first compound 0.04 µM) | relative viability ([4]; first compound 0.1265 µM) | relative viability ([4]; first compound 0.4 µM) | relative viability ([4]; first compound 1.265 µM) | relative viability ([4]; first compound 4 µM) | relative viability ([1]; first compound 0.03162 µM) | relative viability ([3]; first compound 0.03162 µM)
1 | PC-3 [JPC-3] | 0.517 | 0.533 | 0.543 | 0.512 | 0.726 | 0.708 | 0.62 | 0.635 | 0.721 | 0.803 | 0.822 | 0.865 | 0.759 | 0.633 | 0.578 | 0.496 | 0.363 | 0.282 | – | –
2 | BEN | 0.497 | 0.433 | 0.5 | 0.437 | 0.326 | 0.391 | 0.289 | 0.337 | 0.181 | 0.737 | 0.555 | 0.745 | 0.531 | 0.432 | 0.428 | 0.359 | 0.411 | 0.318 | 0.441 | 0.615
3 | NCI-H1666 | 0.63 | 0.678 | 0.626 | 0.572 | 0.938 | 0.93 | 0.922 | 1.01 | 0.775 | 0.796 | 0.728 | 0.856 | 0.69 | 0.737 | 0.616 | 0.601 | 0.57 | 0.495 | 0.624 | 0.912
4 | LC-2-ad | 0.474 | 0.42 | 0.469 | 0.47 | 0.981 | 1.04 | 0.869 | 0.925 | 0.424 | 0.834 | 0.836 | 0.848 | 0.742 | 0.531 | 0.451 | 0.333 | 0.287 | 0.181 | 0.552 | 0.919
5 | ChaGo-K-1 | 0.965 | 0.927 | 0.933 | 0.899 | 0.595 | 0.626 | 0.548 | 0.668 | 0.462 | 0.976 | 0.758 | 0.478 | 0.698 | 0.844 | 0.917 | 0.55 | 0.473 | 0.236 | 0.95 | 0.909
6 | NCI-H1975 | 0.788 | 0.665 | 0.826 | 0.382 | 0.353 | 0.249 | 0.43 | 0.191 | 0.202 | 0.792 | 0.737 | 0.847 | 0.425 | 0.752 | 0.569 | 0.306 | 0.165 | 0.178 | 0.553 | 0.729
7 | NCI-H1993 | 0.686 | 0.699 | 0.583 | 0.614 | 0.869 | 0.935 | 0.861 | 0.724 | 0.907 | 0.754 | 0.716 | 0.81 | 0.78 | 0.657 | 0.384 | 0.501 | 0.443 | 0.406 | 0.627 | 0.893
8 | RERF-LC-KJ | 1.03 | 0.713 | 0.956 | 0.742 | 1.28 | 1.24 | 1.19 | 1.27 | 0.687 | 1 | 0.954 | 0.807 | 0.901 | 1.29 | 1.1 | 0.776 | 0.642 | 0.19 | 1.16 | 0.897
9 | NCI-H23 | 0.48 | 0.499 | 0.576 | 0.43 | 0.212 | 0.234 | 0.197 | 0.234 | 0.214 | 0.23 | 0.186 | 0.212 | 0.167 | 0.482 | 0.418 | 0.349 | 0.153 | 0.189 | 0.584 | 0.224
10 | EMC-BAC-2 | 0.515 | 0.468 | 0.433 | 0.412 | 1.14 | 1.27 | 1.15 | 1.11 | 0.756 | 1.06 | 0.864 | 0.919 | 0.566 | 0.534 | 0.522 | 0.423 | 0.35 | 0.34 | 0.515 | 1.04
11 | NCI-H2405 | 0.515 | 0.547 | 0.503 | 0.45 | 0.664 | 0.665 | 0.862 | 0.743 | 0.515 | 0.783 | 0.705 | 0.821 | 0.414 | 0.594 | 0.509 | 0.457 | 0.282 | 0.261 | 0.549 | 0.66
12 | NCI-H2170 | 0.412 | 0.414 | 0.406 | 0.422 | 0.636 | 0.54 | 1.02 | 0.771 | 0.554 | 1.09 | 1.01 | 0.917 | 0.504 | 0.425 | 0.394 | 0.342 | 0.385 | 0.229 | 0.361 | 0.92
13 | NCI-H2342 | 0.513 | 0.486 | 0.531 | 0.522 | 0.778 | 0.653 | 0.657 | 0.761 | 0.693 | 0.444 | 0.484 | 0.522 | 0.469 | 0.491 | 0.511 | 0.499 | 0.538 | 0.438 | 0.505 | 0.486
14 | EPLC-272H | 0.309 | 0.324 | – | 0.352 | 0.324 | 0.192 | 0.196 | – | 0.356 | 0.208 | 0.215 | – | 0.259 | 0.267 | 0.343 | 0.349 | 0.356 | 0.131 | 0.322 | 0.25
15 | NCI-H1915 | 0.542 | 0.564 | 0.53 | 0.543 | 0.857 | 0.852 | 0.813 | 0.923 | 0.783 | 0.75 | 0.643 | 0.673 | 0.608 | 0.461 | 0.489 | 0.424 | 0.234 | 0.143 | 0.534 | 0.74
16 | NCI-H322M | 0.471 | 0.503 | 0.429 | 0.434 | 1.08 | 0.799 | 0.798 | 0.469 | 0.402 | 0.531 | 0.526 | 0.523 | 0.509 | 0.507 | 0.5 | 0.5 | 0.39 | 0.41 | 0.457 | 0.517
17 | NCI-H522 | 1.04 | 1.18 | – | 0.993 | 1.49 | 1.22 | 1.98 | 1.05 | 1.08 | 1.09 | 0.713 | – | 0.79 | 1.14 | 0.87 | 0.881 | 0.994 | 0.458 | 0.957 | 0.98
18 | NCI-H647 | 0.413 | 0.353 | 0.414 | 0.167 | 0.192 | 0.163 | 0.169 | 0.146 | 0.108 | 0.617 | 0.489 | 0.439 | 0.0774 | 0.481 | 0.485 | 0.174 | 0.056 | 0.0731 | 0.356 | 0.384
19 | LK-2 | 0.54 | 0.724 | – | 0.564 | 0.173 | 0.214 | 0.199 | – | 0.212 | 0.443 | 0.299 | – | 0.223 | 0.521 | 0.614 | – | 0.877 | 0.185 | 0.972 | 0.376
20 | NCI-H358 | 0.135 | 0.135 | 0.0878 | 0.084 | 0.317 | 0.42 | 0.327 | 0.358 | 0.371 | 0.546 | 0.372 | 0.474 | 0.363 | 0.144 | 0.136 | 0.119 | 0.0987 | 0.101 | 0.124 | 0.593
21 | NCI-H2085 | 0.453 | 0.477 | 0.454 | 0.457 | 0.488 | 0.404 | 0.32 | 0.567 | 0.405 | 1.05 | 0.918 | 1.04 | 0.719 | 0.461 | 0.439 | 0.433 | 0.281 | 0.393 | 0.466 | 1.03
22 | NCI-H727 | 0.601 | 0.717 | 0.65 | 0.637 | 0.664 | 0.439 | 0.384 | 0.58 | 0.321 | 0.48 | 0.473 | 0.648 | 0.566 | 0.502 | 0.582 | 0.667 | 0.709 | 0.455 | 0.601 | 0.709
23 | NCI-H441 | 0.233 | 0.205 | 0.203 | 0.194 | 0.322 | 0.421 | 0.323 | 0.444 | 0.239 | 1 | 1.11 | 1.36 | 0.963 | 0.214 | 0.196 | 0.366 | 0.12 | 0.146 | 0.243 | 1.31
24 | LOU-NH91 | 0.516 | 0.513 | 0.439 | 0.478 | 0.411 | 0.354 | 0.303 | – | 0.323 | 0.787 | 0.74 | 0.475 | 0.693 | 0.538 | 0.464 | 0.242 | 0.188 | 0.243 | 0.557 | 0.758
25 | NCI-H3122 | 0.192 | 0.175 | 0.169 | 0.186 | 0.0935 | 0.0696 | 0.096 | 0.0801 | 0.0781 | 1.06 | 0.936 | 1.03 | 0.607 | 0.18 | 0.185 | 0.213 | 0.163 | 0.135 | 0.191 | 0.946
26 | NCI-H460 | 0.221 | 0.0509 | 0.0722 | 0.0229 | 0.0291 | 0.0347 | – | 0.041 | 0.0205 | 0.627 | 0.295 | 0.563 | 0.046 | 0.147 | 0.138 | 0.206 | 0.024 | 0.04 | 0.0725 | 0.513
27 | NCI-H650 | 0.319 | 0.334 | 0.336 | 0.323 | 0.767 | 0.743 | 0.799 | 0.711 | 0.364 | 1.03 | 0.727 | 1.05 | 0.623 | 0.301 | 0.283 | 0.322 | 0.232 | 0.189 | 0.362 | 1.01
